Values of other authors as cited in US7605152B2, “17-hydroxy-4-aza-androstan-3-ones as androgen receptor modulators” (priority 2002, dated 2009).

Assays:
[1] = after 7 years of treatment
[2] = after a median of 22 months of treatment

Row | Molecule | increase in spinal BMD [1] | reduction in nonvertebral fractures [2] | reduction in spine fractures [2]
1 | NCCCC(O)(P(=O)([O-])O)P(=O)(O)O.O.O.O.[Na+] [alendronate, (4-amino-1-hydroxybutylidene)-bis-phosphonate monosodium trihydrate] | 11% |  | 
2 | hPTH(1-34): human parathyroid hormone 1-34 fragment (SVSEIQLMHNLGKHLNSMERVEWLRKKLQDVHNF; Parathyroid hormone; UniProt P01270 32-65, looked up, fragment) |  | 54% | ≥ 65%
